{"source": "patent US20250255845A1", "about": "“USE OF INTERLEUKIN (IL)-17A INHIBITOR IN PREPARATION OF MEDICAMENT FOR TREATING INFLAMMATORY DISEASE” (Xiangnan University, priority 2024, published 2025)", "key": {"[1]": {"test_system": "p-STAT3 (Tyr 705)", "assay": "Western blot of p-STAT3 (Tyr 705) in LPS-induced RAW264.7 cells", "assay_type": "cell-based, mouse", "method": "(§1) RAW264.7 cell culture: mouse mononuclear macrophages (RAW264.7, ATCC) are cultured in a complete medium containing 10% fetal bovine serum (FBS), 1% double antibodies (penicillin and streptomycin), and 89% DMEM at 37° C. and 5% CO2. In this experiment, RAW264.7 cells from passages 3 to 8 are used for related test.\n(§2) LPS (100 ng/ml) is added for stimulation, with or without Tan, and the cell supernatant is collected to detect the contents of NO, IL-23, IL-17A, TNF-α, and IL-6 in the cell supernatant. The cell lysate is collected and the protein expressions (STAT3, p-STAT3 (Ser727), and p-STAT3 (Tyr705)) are detected by Western blot. Total cell RNA is extracted and real-time fluorescence quantitative polymerase chain reaction (PCR) is conducted to detect the expression levels of IL-23, IL-17A, TNF-α, and IL-6 mRNA.\n(§3) RAW264.7 cells in the logarithmic growth phase were inoculated in 100 mm culture dishes, and the cell density was adjusted to 1.6×10^6 cells/dish. […] The supernatant was collected by centrifugation at 4° C., 12,000 rpm for 5 min, and the protein concentration was determined by BCA method. […] Enhanced Chemiluminescence (ECL) color development was used for detection, and protein band quantification was performed using Image J software."}, "[2]": {"test_system": "IL-17A", "assay": "Immunohistochemistry of IL-17A in dorsal skin of IMQ-induced psoriasis mice", "assay_type": "in vivo, Balb/c mice", "conditions": "preventive and therapeutic administration groups; dose-dependent", "method": "Balb/c mice (female, 6-8 weeks, 20+2 g), with certificate number [SCXK (Xiang) 2021-0002], were purchased from Hunan SJA Laboratory Animal (Changsha, China). All mice were housed in an specific pathogen free (SPF)-grade animal room with a 12 h light/12 h dark cycle, and experiments were started after the mice were acclimated for one week. Next, 96 mice were randomly divided into 12 groups (8 mice/group), including Control group, Control solvent (white vaseline) group, IMQ group, IMQ solvent (white vaseline) group, preventive administration of positive medicament Clo group (IMQ+Clo 55 mg), therapeutic administration of positive medicament group (IMQ+Clo (A) 55 mg), preventive administration of Tan low-dose group (IMQ+Tan 40 μg/cm^2), medium-dose group (IMQ+Tan160 μg/cm^2), and high-dose group (IMQ+Tan 640 μg/cm^2), and therapeutic administration of Tan low-dose group (IMQ+Tan (A) 40 μg/cm^2), medium-dose group (IMQ+Tan (A) 160 μg/cm^2), and high-dose group (IMQ+Tan (A) 640 μg/cm^2). After the mice were anesthetized, a 2 cm×3 cm area on the back was selected for hair removal. Modeling began 48 h after hair removal, and all modeling mice were applied with 65 mg (55 mg on the back and 5 mg on each ear) of IMQ cream every morning for 10 d. […]"}, "[3]": {"test_system": "STAT3", "assay": "Western blot of STAT3 in LPS-induced RAW264.7 cells", "assay_type": "cell-based, mouse", "conditions": "5-40 μM, among treatment groups; P>0.05", "method": "as §1, §2, §3"}, "[4]": {"test_system": "RAW264.7 cells", "assay": "CCK-8 cell viability / cytotoxicity", "assay_type": "cell-based, mouse", "conditions": "24 h", "method": "RAW264.7 cell culture: mouse mononuclear macrophages (RAW264.7, ATCC) are cultured in a complete medium containing 10% fetal bovine serum (FBS), 1% double antibodies (penicillin and streptomycin), and 89% DMEM at 37° C. and 5% CO2. In this experiment, RAW264.7 cells from passages 3 to 8 are used for related test. RAW264.7 cells in the logarithmic growth phase were inoculated into a 96-well plate and the cell density was adjusted to 5×10^3 cells/well. After cultured for 24 h, the cells were stably adhered to the wall. The original complete medium was removed and different concentrations of Tan (5, 10, 20, 40, 80, 160, 320 μM) were added to allow treatment with or without LPS (100 ng/ml) for 24 h. Then, 10 μL of CCK-8 solution was added to each well and incubated at 37° C. for 1 h. The OD value of each sample at 450 nm was detected by a microplate reader, and the cell viability was calculated."}}}
{"smiles": "COc1ccc(-c2cc(=O)c3c(OC)c(OC)c(OC)c(OC)c3o2)cc1", "note": "[Tan, tangeretin]", "values": [{"measurement": "suppression of STAT3 phosphorylation (Tyr 705) compared with positive control Clo", "setting": "[1]; 40 μM", "result": "comparable efficacy to the positive control"}, {"measurement": "expression of p-STAT3 (Tyr 705) protein", "setting": "[1]; 5-40 μM, vs LPS group, P<0.001, dose-dependent", "result": "inhibited"}, {"measurement": "expression level of IL-17A in the dorsal skin", "setting": "[2]", "result": "significantly reduced"}, {"measurement": "STAT3 protein expression", "setting": "[3]", "result": "no statistically significant change"}, {"measurement": "toxicity to RAW264.7 cells (cell viability)", "setting": "[4]; 0-40 μM, P>0.05", "result": "did not produce significant toxicity"}, {"measurement": "cell viability of RAW264.7 cells", "setting": "[4]; Tan concentration higher than 40 μM, P<0.05", "result": "decreased"}]}
